pIC50, pKi: −log10 of the molar value. Where two headings read alike, the source gives them in different places.

Test [1] deals with JAK1 pathway: P-STAT6 in TF-1 human erythroleukemia cells + IL-13. As to the kind of experiment: P-STAT6 TF-1+Interleukin-13 (IL-13) assay. To be noted: Homo sapiens, TF-1, TF-1 cells, IL-13 stimulation; read-out: Cellular JAK1 PSTAT6 TF-1 + IL13 IC50. The test is classed as cell-based. How it is done:
(§1) TF-1 human erythroleukemia cells (ATCC®; Manassas, Va.; Catalog No. CRL-2003™) were grown in Roswell Park Memorial Institute (RPMI) medium supplemented with 10% heat-inactivated fetal bovine serum (FBS), 2 ng/mL granulocyte-macrophage colony-stimulating factor, 1×non-essential amino acids (NEAA), and 1 mM sodium pyruvate. The day before the assay, the cultures were transferred to Opti-MEM™, 1×NEAA, 1 mM sodium pyruvate, and 0.5% charcoal-stripped FBS (starve medium). Inhibitor stock solutions (5 mM in DMSO) were serially diluted 1:2 in DMSO to generate a 10-point concentration titration (at 500×test concentration), which was further diluted by a 50-fold dilution in Assay Medium (RPMI containing 1×NEAA and 1 mM sodium pyruvate) to generate a 10×concentration titration (in 2% DMSO). The cells (300,000 cells/well in 35 μL of Assay Medium) were seeded in 384-well Greiner plates. Diluted inhibitor at 10×concentration (5 μL) was added to the cells and the plates were incubated for 30 minutes at 37° C. in a humidified incubator. Cells were stimulated with the human recombinant cytokine at the respective EC90 concentrations, as previously determined for each individual lot. For the phosphorylated signal transducer and activator of transcription 6 (P-STAT6) TF-1+Interleukin-13 (IL-13) assay, 10 μL of 250 ng/mL IL-13 (R&D Systems; Minneapolis, Minn.) was added to the cells, which were then incubated for 10 minutes at 37° C. For the P-STAT5 TF-1+Erythropoietin (EPO) assay, 10 μL of 110 IU/mL EPO (Gibco Life Technologies, Catalog No. PHC2054) was added to the cells, which were then incubated for 30 min at 37° C. For both assays, the incubation was followed by addition to the cells of 5 μL of ice-cold 10× cell lysis buffer (Cell Signaling Technologies; Danvers, Mass.; Catalog No. 9803S) containing 1 mM phenylmethylsulfonyl fluoride (PMSF). Assay plates were frozen at −80° C. for a minimum of 1 horn. In the IL-13 assay, P-STAT6 was measured by coating goat anti-rabbit (GAR) plates (Meso Scale Discovery [MSD]; Rockville, Md.; Catalog No. MSD L21RA-1) with rabbit anti-human total STAT6 antibody (Cell Signaling Technologies; Catalog No. 9362S), incubating the cell lysates in the coated plates overnight at 4° C., and then detecting with mouse anti-P-STAT6 (Tyr641) Clone 16E12 antibody (MilliporeSigma; Burlington, Mass.; Catalog No. 05-590, custom labeled by MSD with SULFO-tag) using standard MSD plate processing, washing, and detection protocols. In the EPO assay, P-STAT5 was detected using the phospho-STAT5a,b Whole Cell Lysate Kit (MSD; Catalog No. K150IGD-1). The electrochemiluminescence (ECL) signal of wells was read on the MESO SECTOR S600 (MSD) reader.

In test [2] the test system is JAK2 pathway: P-STAT5 in TF-1 human erythroleukemia cells + EPO. Kind of test: P-STAT5 TF-1+Erythropoietin (EPO) assay. The test is classed as cell-based. To be noted: EPO stimulation, read-out: Cellular JAK2 PSTAT5 TF-l + EPO IC50. How it is done: as §1
Test [3] concerns the target Recombinant human JAK2 kinase domain protein (Residues 812-1132) (Homo sapiens, UniProt O60674). Kind of test: JAK2 biochemical assay (microfluidic mobility shift, peptide phosphorylation). To be noted: Enzyme JAK2 Ki (nM), 25 μM ATP, 0.2 nM total JAK2.
Test [4] relates to JAK1: IL-13-stimulated STAT6 phosphorylation in BEAS-2B cells. As to the kind of experiment: P-STAT6 BEAS-2B+IL-13 Cell Assay. The format is cell-based, human. Particulars: Homo sapiens, BEAS-2B, IL-13 stimulation, read-out: Cellular JAK1 PSTAT6 BEAS2B + IL13 IC50. In a few lines: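 BEAS-2B cells in BEGM preincubated 1 h at 37 °C with 10-point, 1:2 compound dilutions, then stimulated 15 min with IL-13 (250 ng/mL stock). Lysate pSTAT6 (Tyr641) captured on total-STAT6 antibody and read by MSD electrochemiluminescence; IC50 from four-parameter logistic fit.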

Test [5] deals with T1, recombinant human JAK1 kinase domain protein (Residues 854-1154) (Homo sapiens, UniProt P23458).
T1 construct: human JAK1 kinase domain protein (Residues 854-1154); purchased Proteros Biostructures GmbH (Martinsried, Germany); host or cells: insect cells
As to the kind of experiment: JAK1 biochemical assay (microfluidic mobility shift, peptide phosphorylation). To be noted: 25 μM ATP, 1 nM total JAK1; read-out: Enzyme JAK1 Ki. The source says:
JAK1 and JAK2 Biochemical Assays

Recombinant human JAK2 kinase domain protein (Residues 812-1132), sequence (O60674 812-1132): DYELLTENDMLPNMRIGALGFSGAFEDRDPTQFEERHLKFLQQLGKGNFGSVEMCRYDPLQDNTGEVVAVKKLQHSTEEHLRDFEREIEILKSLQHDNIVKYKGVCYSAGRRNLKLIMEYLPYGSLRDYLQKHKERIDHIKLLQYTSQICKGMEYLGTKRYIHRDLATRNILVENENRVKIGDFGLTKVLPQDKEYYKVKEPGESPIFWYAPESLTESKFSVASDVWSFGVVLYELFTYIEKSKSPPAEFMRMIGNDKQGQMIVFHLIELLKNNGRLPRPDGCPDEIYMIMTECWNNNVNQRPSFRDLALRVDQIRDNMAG
T1 sequence (P23458 854-1154): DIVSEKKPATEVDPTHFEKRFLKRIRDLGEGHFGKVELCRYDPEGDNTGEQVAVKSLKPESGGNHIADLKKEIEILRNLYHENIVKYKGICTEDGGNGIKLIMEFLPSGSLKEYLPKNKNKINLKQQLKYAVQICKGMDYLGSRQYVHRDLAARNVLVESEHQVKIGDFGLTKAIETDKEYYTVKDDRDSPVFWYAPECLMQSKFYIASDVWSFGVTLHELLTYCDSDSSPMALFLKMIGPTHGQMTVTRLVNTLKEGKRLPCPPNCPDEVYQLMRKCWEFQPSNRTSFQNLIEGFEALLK

Take `Cn1cc(NC(=O)c2cnn3cccnc23)c(-c2cc(S(=O)(=O)c3cccnc3)ccc2OC(F)F)n1` [Example 42, N-[3-[2-(difluoromethoxy)-5-(3-pyridylsulfonyl)phenyl]-1-methyl-pyrazol-4-yl]pyrazolo[1,5-a]pyrimidine-3-carboxamide]: the pIC50 (commonly the IC50 on a negative log10 scale, so that one unit is a factor of ten) is 8.59 in test [1]; 7.68 in test [2] (Homo sapiens, TF-1, TF-1 cells); 7.52 in test [4]. Moreover, the Ki (in general, the dissociation constant of the complex between target and ligand, obtained from inhibition or displacement) in test [3] was determined as 0.24 nM. In addition, the pKi – broadly, the negative decadic logarithm of the Ki, by convention in mol/L – in test [5] was 9.38.
On to `C[C@@H](Cn1cc(S(=O)(=O)c2ccc(OC(F)F)c(-c3nn(C)cc3NC(=O)c3cnn4cccnc34)c2)cn1)N(C)C` [Example 58, N-[3-[2-(difluoromethoxy)-5-[1-[(2S)-2-(dimethylamino)propyl]pyrazol-4-yl]sulfonyl-phenyl]-1-methyl-pyrazol-4-yl]pyrazolo[1,5-a]pyrimidine-3-carboxamide], for which the pIC50 in test [1] was 7.62; in test [2] (Homo sapiens, TF-1, TF-1 cells) it was 7.49; in test [4], 7.40. For the same compound, the Ki in test [3] is 0.86 nM. The negative logarithm of the Ki (pKi) in test [5] is 9.05.
On to `Cn1cc(NC(=O)c2cnn3cccnc23)c(-c2cc(S(=O)(=O)C3CCCNC3)ccc2OC(F)F)n1` (single isomer, unassigned) [Example 36, N-[3-[2-(difluoromethoxy)-5-(3-piperidylsulfonyl)phenyl]-1-methyl-pyrazol-4-yl]pyrazolo[1,5-a]pyrimidine-3-carboxamide], for which the pIC50 in test [1] was 7.15; in test [2] (TF-1 cells), 6.92. The Ki in test [3] came to 1.1 nM. Further, in test [5], the pKi is 8.74.
Consider `CN(C)CCn1cc(NC(=O)c2cnn3cccnc23)c(-c2cc(S(=O)(=O)C3CC3)ccc2OC(F)F)n1` [Example 50, N-[3-[5-cyclopropylsulfonyl-2-(difluoromethoxy)phenyl]-1-[2-(dimethylamino)ethyl]pyrazol-4-yl]pyrazolo[1,5-a]pyrimidine-3-carboxamide], for which the pIC50 was 7.57 in test [1]; 6.80 in test [2] (Homo sapiens, TF-1, TF-1 cells); 7.30 in test [4]. For the same compound, the Ki in test [3] stood at 1.9 nM. In test [5], the pKi was 8.77.
For `CC(C)S(=O)(=O)c1ccc(OC(F)F)c(-c2nn(C)cc2NC(=O)c2cnn3cccnc23)c1` [Example 1, N-[3-[2-(difluoromethoxy)-5-isopropylsulfonyl-phenyl]-1-methyl-pyrazol-4-yl]pyrazolo[1,5-a]pyrimidine-3-carboxamide], the pIC50 in test [1] is 8.20; in test [2] (Homo sapiens, TF-1, TF-1 cells) it was 7.92; in test [4] it was 7.51. Further, in test [3], the inhibitory constant (Ki) turned out to be 0.25 nM. Also, the pKi in test [5] is 9.25.
Consider `CN1CCC[C@@H]1Cn1cc(NC(=O)c2cnn3cccnc23)c(-c2cc(S(=O)(=O)C3CC3)ccc2OC(F)F)n1` (racemic) [Example 60, N-[3-[5-cyclopropylsulfonyl-2-(difluoromethoxy)phenyl]-1-[[rac-(2R)-1-methylpyrrolidin-2-yl]methyl]pyrazol-4-yl]pyrazolo[1,5-a]pyrimidine-3-carboxamide], for which the pIC50 is 7.62 in test [1]; 6.77 in test [2] (Homo sapiens, TF-1, TF-1 cells); 7.36 in test [4]. In addition, the Ki in test [3] was 2.5 nM. In test [5], the pKi was 8.96.
For the compound `CN1CC(n2cc(S(=O)(=O)c3ccc(OC(F)F)c(-c4nn(C)cc4NC(=O)c4cnn5cccnc45)c3)cn2)C1` [Example 61, N-[3-[2-(difluoromethoxy)-5-[1-(1-methylazetidin-3-yl)pyrazol-4-yl]sulfonyl-phenyl]-1-methyl-pyrazol-4-yl]pyrazolo[1,5-a]pyrimidine-3-carboxamide], the pIC50 in test [1] was 6.72; in test [2] (Homo sapiens, TF-1, TF-1 cells), 6.70; in test [4], 7.47. Further, in test [3], the Ki worked out at 0.77 nM. For the same compound, the pKi in test [5] is 9.09.

Source of the values: patent publication US11453671B2, “Pyrazolopyrimidine inhibitors of JAK kinases and uses thereof” (Genentech, Inc., priority 2020, dated 2022).
